Laboratory results as given in patent publication US10438128B2, “Treatment of autoimmune and inflammatory diseases with the arsenic compounds AS2O3 and/or AS2O5 administered locally” (CENTRE NATIONAL DE LA RECHERCHE SCIENTIFIQUE (CNRS), priority 2013, dated 2019).

Legend:
MRL/lpr mice [1] = experiment: Experiment 3: topical treatment of skin lesions in MRL/lpr mice with As2O5; type: in vivo, mouse; conditions: 0.5 mg/ml
Procedure: Methods: The arsenic compound As2O5 is first dissolved at a high concentration (10 to 15 mg/ml) in distilled water until a clear and colorless solution is obtained. The solution is made sterile and free of particles by filtration on a 0.22 μm filter. The stock As2O5 solution thus obtained is then diluted in phosphate buffer or sterile physiological saline so as to obtain a concentration between 0.5 mg/ml for use in vivo. The stock solution of the arsenic compound As2O5 is preserved for 1 to 3 months in the refrigerator (4° C.), while the dilute solution is preserved for only 5 days at 4° C. and away from light.
MRL/lpr mice (12 females and 12 males, 4 to 5 months of age) presenting severe lupus-type skin lesions, and for some cutaneous necrotizing vasculitis (time t0 in FIG. 6), were treated 5 times per week (Monday to Friday), for 8 weeks, by applying on the tissue lesions a compress (or a brush) impregnated with a solution of arsenic As2O5 at concentrations of 0.5 mg/ml. The control animals were mice of the same age and sex treated with the excipient.

[2] = ratio to As2O3; cited from earlier work
MRL/lpr mice [3] = experiment: Experiment 6: local treatment with suboptimal As2O3, As2O5 or the combination; type: in vivo, mouse; conditions: suboptimal 0.12 mg/ml, 5 applications/week, 8 weeks
Procedure: (§1) Methods: MRL/lpr mice (males and females) presenting severe lupus-type skin lesions and cutaneous necrotizing vasculitis were treated 5 times per week, for 8 weeks, by administering an aqueous solution containing either the arsenic compound As2O3 or the compound As2O5 or a mixture of both compounds As2O3+As2O5 or phosphate buffer (PBS) as negative control. Weakly effective doses (suboptimal) of As2O3 or As2O5 were voluntarily used. The arsenic compounds were administered in aqueous form using compresses or a brush for local treatment or an intraperitoneal injection for systemic treatment.
(§2) At the conclusion of the treatment, the blood of each animal was sampled in order to quantify in the serum the levels of autoantibodies (anti-DNA, rheumatoid factor) and cytokines involved in the disease. Skin from the back of each animal was sampled for histological analysis and for analysis of the nature of the inflammatory infiltrate after isolating the cells using enzymatic methods, their counts under the microscope and their analyses by flow cytometry using fluorescent antibodies specific to leukocytes.

MRL/lpr mice [4] = experiment: Experiment 4: gradual decrease in number of weekly topical applications of As2O5; type: in vivo, mouse
Procedure: Methods: Severe skin lesions and cutaneous necrotizing vasculitis present at time t0 in 10 MRL/lpr mice 4 to 5 months in age were treated by applying a compress (or a brush) impregnated with a solution of the arsenic compound As2O5 at the concentration of 0.5 mg/ml.

MRL/lpr mice [5] = experiment: Experiment 5: systemic (intraperitoneal) treatment of skin lesions in MRL/lpr mice with As2O5; type: in vivo, mouse
Procedure: Methods: MRL/lpr mice (6 females and 6 males, 4 to 5 months of age) presenting severe lupus-type skin lesions and cutaneous necrotizing vasculitis (time t0 FIGS. 8A and 8B) were treated 5 times per week (Monday to Friday), for 3 or 4 weeks, by intraperitoneal injections of 0.1 ml per 10 g of mouse of a solution of arsenic As2O5 at the concentration of 0.5 mg/ml. The control animals were mice of the same age and sex treated with the excipient.

[6] = cited from earlier work
MRL/lpr mice [7] = experiment: Experiment 6: systemic treatment with suboptimal As2O3, As2O5 or the combination; type: in vivo, mouse; conditions: suboptimal 0.12 mg/ml, 5 times/week, 8 weeks
Procedure: as §1, §2

MRL/lpr mice [8] = experiment: Experiment 1: topical treatment of skin lesions in MRL/lpr mice with As2O3; type: in vivo, mouse; conditions: 0.5 mg/ml
Excerpt: MRL/lpr mice spontaneously develop disseminated lupus erythematosus, rheumatoid polyarthritis and Sjögren's syndrome characterized by dermatological, vascular, renal, pulmonary, articular and ocular damage due to lymphoid cell infiltrates. As in man, a strong sexual dimorphism is observed in MRL/lpr mice, the female mice presenting an earlier and more severe pathology than the males and dying earlier. The disease begins around the age of 8 weeks and causes the death of the mice, on average, at around 18 weeks of age for the females and 22 weeks for the males, the average lifespan of a normal mouse being 2 years.
Methods: The solubility of arsenic compounds depends mainly on the pH and oxidation-reduction conditions and the temperature of the excipient. Since the arsenic compound As2O3 is poorly water soluble, it is first dissolved at a high concentration (60 to 70 mg/ml) in dilute alkaline solution (0.5 or 1 M) and gently heated until a clear and colorless solution is obtained. This solution is made free of particles and sterile by filtration on a 0.22 μm filter. The stock As2O3 solution thus obtained is then diluted in phosphate buffer or sterile physiological saline at the concentration varying from 0.5 mg/ml for use in vivo. The stock solution of the arsenic compound As2O3 is preserved from 1 to 3 months in the refrigerator (4° C.), whereas the dilute solution is preserved only 5 days at 4° C. and away from light.
MRL/lpr mice (10 females and 10 males per group, aged 4 to 5 months) presenting severe lupus-type skin lesions, and for some cutaneous necrotizing vasculitis, were treated, 3 or 5 times per week depending on the experiment (from Monday to Friday), for 8 weeks, by application on the tissue lesions of a compress (or a brush) impregnated with arsenic As2O3 solution at concentrations of 0.5 mg/ml. The control animals were mice, of the same age and sex, treated with the excipient.

[9] = 20° C.; cited from earlier work
MRL/lpr mice [10] = experiment: Experiment 2: gradual decrease in number of weekly topical applications of As2O3; type: in vivo, mouse
Procedure: Methods: Severe skin lesions and cutaneous necrotizing vasculitis present before treatment (time t0 in FIGS. 3, 4 and 5) in 15 4-month-old MRL/lpr mice were treated by applying a compress (or a brush) impregnated with a solution of the arsenic compound As2O3 at the concentration of 0.5 mg/ml. The number of applications per week varied from 2 to 5 depending on the experiment. Similarly, the total duration of the topical treatment varied from 7 to 32 weeks.

With `O=[As](=O)O[As](=O)=O` [As2O5, arsenic pentoxide] the “regrowth of hair (regeneration of lesioned skin tissue)” value (MRL/lpr mice [1]) was “nearly complete regrowth of hair”, the “destruction of the skin in first week of treatment” value (MRL/lpr mice [1]; 5 applications/week) was “ceased” and the “skin lesions after 4 weeks of treatment” value (MRL/lpr mice [1]; 5 applications/week) was “almost disappeared”. For the same compound, the “time until destruction of skin tissue ceased” value (MRL/lpr mice [1]; 5 applications/week) was “less than 2 weeks”, the “undesirable effect (nonspecific immunosuppression, tissue toxicity or premature death)” value (from here on “undesirable effect”) (MRL/lpr mice [1]; 8 weeks) was “no undesirable effect” and the “toxicity relative to As2O3” value [2] was “about 1/60”. For the same compound, the “cells in lymphocytic/inflammatory infiltrate of back skin (FIG. 9A)” value (MRL/lpr mice [3]) was “still high number of cells”, the “inflammatory skin lesions (FIG. 10)” value (MRL/lpr mice [3]) was “presence of severe skin lesions” and the “relapse or rebound of the disease at a single application per week” value (MRL/lpr mice [4]; 5 weeks, 1 application/week) was “no relapse or rebound”. For the same compound, the “time to stop development of tissue lesions” value (MRL/lpr mice [4]; front-line treatment, 5 applications/week) was no more than 2 weeks, the “skin lesions after 2 further weeks at 2 applications per week” value (MRL/lpr mice [4]; topical, 0.5 mg/ml) was “nearly disappeared” and the “inflammatory skin and vasculitis lesions after 2 weeks” value (MRL/lpr mice [4]; topical, 0.5 mg/ml, 5 applications/week) was “ceased”. For the same compound, the “survival after the beginning of the treatment (majority of animals)” value (MRL/lpr mice [4]; topical, schedule reduced from 5 to 1 application/week) was “more than 8 weeks”, the “regrowth of hair (regeneration of lesioned skin tissue)” value (MRL/lpr mice [5]) was “nearly complete regrowth of hair” and the “undesirable effect” value (MRL/lpr mice [5]; 0.5 mg/ml solution) was “no undesirable effect”. For the same compound, the “destruction of skin after 3 or 4 weeks of treatment” value (MRL/lpr mice [5]; 0.1 ml per 10 g of 0.5 mg/ml, 5 times/week) was “strongly regressed or even nearly disappeared”, the “oral lethal dose for man” value [6] was 5 to 50 mg/kg and the “cells in lymphocytic/inflammatory infiltrate of back skin (FIG. 9B)” value (MRL/lpr mice [7]) was “still high number of cells”.

In the case of arsenic trioxide [As2O3], the “regrowth of hair (skin tissue regeneration)” value (MRL/lpr mice [8]) is reported as “nearly complete regrowth of hair”, the “tissue lesions after 8 weeks with 3 weekly applications” value (MRL/lpr mice [8]; 3 applications/week, less severe lesions, female mice) is reported as “significant decrease” and the “tissue destruction after 2 weeks of treatment” value (MRL/lpr mice [8]; 5 applications/week, 2 weeks) is reported as “ceased and even regressed”. For the same compound, the “inflammatory skin lesions after 8 weeks of treatment” value (MRL/lpr mice [8]; 5 applications/week, 8 weeks) was “nearly completely disappear”, the “undesirable effect” value (MRL/lpr mice [8]; 8 weeks) was “No undesirable effect” and the solubility in water [9] was 37 mg/mL. For the same compound, the “cells in lymphocytic/inflammatory infiltrate of back skin (FIG. 9A)” value (MRL/lpr mice [3]) was “still high number of cells”, the “inflammatory skin lesions (FIG. 10)” value (MRL/lpr mice [3]) was “presence of severe skin lesions” and the “cells in lymphocytic/inflammatory infiltrate of back skin (FIG. 9B)” value (MRL/lpr mice [7]) was “still high number of cells”. For the same compound, the “relapse or rebound of the disease after reduced dosing schedule” value (MRL/lpr mice [10]; 5/week for 4 weeks, then 3/week for 6 weeks, female mouse) was “no relapse or rebound”, the “skin damage after 7 weeks of topical treatment” value (MRL/lpr mice [10]; 5 applications/week for 2 weeks, then 2/week for 5 weeks) was “decreased considerably” and the “age reached by treated mouse (euthanized)” value (MRL/lpr mice [10]; female, 3.5 months old at t0, treated 32 weeks discontinuously) was 1 year.
